Results published in PMC8284461, “Piperidine-4-Carboxamides Target DNA Gyrase in Mycobacterium abscessus” (Antimicrobial Agents and Chemotherapy, 2021).
Values after ≈ are worked out from the molar mass of the structure shown. Where two headings read alike, the source gives them in different places.

Tests used:
[1] = Plasma stability; format: in vitro ADME, CD-1 mice; conditions: mouse plasma, 37°C, 1 μg/ml
Procedure: (§1) The plasma stability assays were carried out using plasma from female CD-1 mice, New Zealand white rabbits, rhesus monkeys, and humans containing K2EDTA anticoagulant (Bioreclamation). Stability samples consisted of 5 μl of stock compound solution in 50:50 ACN/water and 95 μl of plasma to a final concentration of 1 μg/ml. The samples were incubated at 37°C with shaking; 10 μl of plasma was removed at each time point and combined with 100 μl of ACN/methanol 50:50 protein precipitation solvent containing internal standard (10 ng/ml verapamil). Chromatography for metabolite identification was performed the same as specified for pharmacokinetic sample analysis. Full scan total ion chromatograms (TIC) of plasma extracts were acquired using a Q Exactive high-resolution mass spectrometer (QE-HRMS) at 70,000 mass resolution. Thermo Fisher Compound Discoverer software was used to assist in identifying the 844-TFM metabolites from the QE-HRMS TIC mass spectrum. Figure S2 in the supplemental material illustrates the extracted ion chromatograms (XIC) of 844-TFM and the metabolites using 5 ppm mass accuracy before and after 12 h of incubation in mouse plasma.

[2] = test system: M. abscessus subsp. abscessus Bamboo 844^r-3 (GyrB S473W); assay: MIC, resistant mutant; format: cell-based, Mycobacterium abscessus; conditions: Mycobacteroides abscessus
[3] = test system: M. abscessus subsp. abscessus ATCC 19977 MXF^r-1 (GyrA D96Y); assay: MIC, resistant mutant; format: cell-based, Mycobacterium abscessus; conditions: Mycobacteroides abscessus, ATCC19977
[4] = test system: M. abscessus subsp. abscessus ATCC 19977 MXF^r-3 (GyrA D96G); assay: MIC, resistant mutant; format: cell-based, Mycobacterium abscessus; conditions: Mycobacteroides abscessus, ATCC19977
[5] = test system: M. abscessus complex strains; assay: MIC across reference strains and clinical isolates; format: cell-based, Mycobacterium abscessus
Procedure: MIC was determined using the broth microdilution method in 96-well plates as described previously ([47]). Briefly, a 10-point 2-fold serial dilution of compounds was performed in 96-well plates (Costar 3370; Corning, USA) starting at twice the desired highest concentration. […] One hundred microliters of the bacterial suspension was seeded onto the 96-well plates containing 100 μl of the serially diluted compounds to give a final volume of 200 μl in each well with the final OD600 of 0.005. The plates were sealed with parafilm, placed onto wet paper towels in a lock-lock box and incubated for 3 days at 37°C with orbital shaking at 90 rpm. […] Absorbance values at day 3 were subtracted from the day 0 readout. Percent growth inhibition was calculated by dividing the absolute absorbance value of treated cells with untreated control and multiplying by 100. CLR was included in all MIC experiments as a positive control to monitor assay reproducibility. MIC was defined as 90% of growth inhibition relative to untreated controls.

[6] = biological target: recombinant M. abscessus wild-type DNA gyrase (Mycobacteroides abscessus, UniProt B1ME45+B1ME58); assay: biochemical; design: species or system Mycobacterium abscessus
Sequence of recombinant M. abscessus wild-type DNA gyrase (B1ME58 entry or part of it): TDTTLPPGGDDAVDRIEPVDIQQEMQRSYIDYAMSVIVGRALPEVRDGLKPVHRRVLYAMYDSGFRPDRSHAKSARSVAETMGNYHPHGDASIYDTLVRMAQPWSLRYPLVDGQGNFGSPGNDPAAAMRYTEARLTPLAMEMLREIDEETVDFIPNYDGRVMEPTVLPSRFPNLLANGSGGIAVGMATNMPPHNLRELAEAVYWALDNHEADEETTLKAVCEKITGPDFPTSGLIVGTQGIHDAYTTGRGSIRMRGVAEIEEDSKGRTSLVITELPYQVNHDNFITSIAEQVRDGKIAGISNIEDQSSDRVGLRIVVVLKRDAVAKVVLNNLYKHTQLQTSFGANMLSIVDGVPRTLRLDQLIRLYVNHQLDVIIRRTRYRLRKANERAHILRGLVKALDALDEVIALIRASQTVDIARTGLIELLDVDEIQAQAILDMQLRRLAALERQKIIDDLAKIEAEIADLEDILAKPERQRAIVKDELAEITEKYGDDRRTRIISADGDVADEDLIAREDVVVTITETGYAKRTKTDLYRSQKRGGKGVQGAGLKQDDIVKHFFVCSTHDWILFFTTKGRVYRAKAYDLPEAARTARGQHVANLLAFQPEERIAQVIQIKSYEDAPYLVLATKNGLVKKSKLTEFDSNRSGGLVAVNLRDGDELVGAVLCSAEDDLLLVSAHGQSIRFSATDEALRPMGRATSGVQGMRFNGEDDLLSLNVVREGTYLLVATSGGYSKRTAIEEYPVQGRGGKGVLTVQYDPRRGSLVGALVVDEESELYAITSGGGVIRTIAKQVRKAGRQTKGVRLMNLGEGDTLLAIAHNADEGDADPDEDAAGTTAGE
Sequence of recombinant M. abscessus wild-type DNA gyrase (B1ME45 entry or part of it): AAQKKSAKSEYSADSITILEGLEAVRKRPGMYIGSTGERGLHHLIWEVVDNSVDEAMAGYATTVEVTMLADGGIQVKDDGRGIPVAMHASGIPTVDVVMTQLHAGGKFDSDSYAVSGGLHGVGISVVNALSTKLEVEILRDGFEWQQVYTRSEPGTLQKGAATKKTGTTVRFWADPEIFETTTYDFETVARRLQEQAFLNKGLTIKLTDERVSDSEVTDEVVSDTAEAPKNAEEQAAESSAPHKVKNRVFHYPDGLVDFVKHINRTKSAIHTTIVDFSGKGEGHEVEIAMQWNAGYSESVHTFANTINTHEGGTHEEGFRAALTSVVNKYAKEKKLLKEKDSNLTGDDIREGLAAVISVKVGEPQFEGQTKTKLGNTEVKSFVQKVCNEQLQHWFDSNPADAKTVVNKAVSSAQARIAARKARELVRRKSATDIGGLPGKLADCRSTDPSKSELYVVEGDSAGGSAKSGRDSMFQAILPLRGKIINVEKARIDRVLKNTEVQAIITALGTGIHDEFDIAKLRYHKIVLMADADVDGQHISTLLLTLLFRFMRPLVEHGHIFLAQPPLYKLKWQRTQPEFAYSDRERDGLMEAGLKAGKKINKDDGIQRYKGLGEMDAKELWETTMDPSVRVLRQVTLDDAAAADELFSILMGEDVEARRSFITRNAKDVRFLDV

[7] = Plasma stability; format: in vitro ADME, humans; conditions: human plasma, 37°C, 1 μg/ml
Procedure: as §1

[8] = biological target: GyrA D91N mutant recombinant M. abscessus DNA gyrase (Mycobacteroides abscessus, UniProt B1ME45+B1ME58, D91N); format: biochemical, Mycobacterium abscessus; conditions: GyrA D91N mutant DNA gyrase, up to 50 μM
Sequence of GyrA D91N mutant recombinant M. abscessus DNA gyrase (B1ME58 2-839, stated change not applied): as the sequence (B1ME58 entry or part of it) above
Sequence of GyrA D91N mutant recombinant M. abscessus DNA gyrase (B1ME45 2-675, stated change not applied): as the sequence (B1ME45 entry or part of it) above

[9] = test system: M. abscessus subsp. abscessus Bamboo 844^r-2 (GyrA D91N); assay: MIC, resistant mutant; format: cell-based, Mycobacterium abscessus; conditions: Mycobacteroides abscessus
[10] = In vivo mouse pharmacokinetics; conditions: CD-1 mice
Procedure: All animal experiments were approved by the Center for Discovery and Innovation, Institutional Animal Care and Use Committee, and were conducted in compliance with their guidelines. Female CD-1 mice were weighed and received a single dose of […] via the intravenous (i.v.) (5 mg/kg of body weight), oral (p.o.) (25 mg/kg), or subcutaneous (s.c.) (25 mg/kg) dosing route. The compound was formulated as a solution in 5% N,N-dimethylacetamide (DMA)/95% Milli-Q water vehicle. Blood samples were serially collected via the tail snip from each individual mouse at 0.017, 0.25, 1, 3, 5, and 8 h postdose following i.v. dosing and at 0.5, 1, 3, and 5 h postdose following p.o. and s.c. dosing. Blood (50 μl) was collected in capillary Microvette K2EDTA tubes (16.444.100; Sarstedt, Inc.) and kept on ice prior to centrifugation at 1,500 × g for 5 min. The supernatant (plasma) was transferred into a 96-well plate and stored at −80°C.
Liquid chromatography-tandem mass spectrometry (LC-MS/MS) analysis was performed on a Sciex Applied Biosystems Qtrap 6500+ triple-quadrupole mass spectrometer coupled to a Shimadzu Nexera 2 high-pressure liquid chromatography (HPLC) system to quantify each drug in plasma. Neat 1 mg/ml DMSO stocks for 844-TFM were serial diluted in 50:50 acetonitrile (ACN)/water to create standard curves and quality control (QC) spiking solutions. Standards and QCs were created by adding 10 μl of spiking solutions to 90 μl of drug-free plasma (CD-1 K2EDTA Mouse; Bioreclamation IVT). Twenty microliters of control, standard, QC, or study sample were added to 200 μl of ACN/methanol (MeOH) 50:50 protein precipitation solvent containing internal standard (10 ng/ml verapamil). Extracts were vortexed for 5 min and centrifuged at 4,000 rpm for 5 min. One hundred microliters of supernatant was transferred for HPLC-MS/MS analysis and diluted with 100 μl of Milli-Q deionized water.
Chromatography was performed on an Agilent Zorbax SB-C8 column (2.1 × 30 mm; particle size, 3.5 μm) using a reverse-phase gradient. Milli-Q deionized water with 0.1% formic acid was used for the aqueous mobile phase and 0.1% formic acid in ACN for the organic mobile phase. Multiple-reaction monitoring of precursor/product transitions in electrospray positive-ionization mode was used to quantify the analytes. The following multiple reaction monitoring (MRM) transitions were used for 844-TFM (459.10/133.00) and verapamil (455.4/165.2). Sample analysis was accepted if the concentrations of the quality control samples were within 20% of the nominal concentration. Data processing was performed using Analyst software (version 1.6.2; Applied Biosystems Sciex).

[11] = Plasma stability; format: in vitro ADME, New Zealand white rabbits; conditions: rabbit plasma, 37°C, 1 μg/ml
Procedure: as §1

[12] = female, mouse, plasma, iv, i.v. 5 mg/kg, average (SD)

For `COc1ccc2nccc(NC(=O)C3CCN(CCc4ccc(C(F)(F)F)cc4)CC3)c2n1` [844-TFM], the stability in plasma [1] was “rapidly degraded”, the MIC [2] was 5 µM (≈ 2.29 µg/mL) and the MIC [3] was 6 µM (≈ 2.75 µg/mL). The MIC [4] was 1 µM (≈ 0.458 µg/mL), the MIC ([5]; Mycobacteroides abscessus, reference strains and clinical isolates of Table 1, read-out: MICs ranging across the M. abscessus complex strains) was 1.5 to 6 µM (≈ 0.688 to 2.75 µg/mL) and the “fold more potent than 844” value ([5]; whole-cell potency relative to 844) was about 8 fold. For the same compound, the “IC50 fold lower than the IC50 of parental 844” value [6] was 2.4 fold, the IC50 ([6]; wild-type DNA gyrase, relaxed pBR322 substrate, read-out: IC50, supercoiling activity) was 1.9 µM and the “remaining after 24 h” value [7] was “approximately 80%”. The “effect on supercoiling activity” value [8] was “No inhibition”, the MIC [9] was over 100 µM and the V ([10]; i.v. 5 mg/kg, average (SD)) was 0.811 (0.221) liter/kg. It also gave a clearance [10, 12] of 0.638 L/h/kg, a k el [10, 12] of 0.000192 s⁻¹ and an AUC ([10]; female, mouse, plasma, iv, i.v. 5 mg/kg, average (SD), read-out: AUC i.v.) of 5.63 µg·h/mL. It also gave a half-life ([10]; female, mouse, plasma, iv, i.v. 5 mg/kg, average (SD), read-out: elimination half-life (converted)) of 1.03 h, a bioavailability ([10]; female, mouse, plasma, oral, p.o. 25 mg/kg vs i.v. 5 mg/kg, read-out: p.o. bioavailability) of 0.05 to 0.2% and a bioavailability ([10]; female, mouse, plasma, po, p.o. 25 mg/kg vs i.v. 5 mg/kg, read-out: p.o. bioavailability) of 0.15%. It also gave an AUC ([10]; female, mouse, plasma, po, p.o. 25 mg/kg, average (SD), read-out: AUC p.o.) of 0.058 µg·h/mL, a bioavailability ([10]; female, mouse, plasma, sc, s.c. 25 mg/kg vs i.v. 5 mg/kg, read-out: s.c. bioavailability) of 3% and an AUC ([10]; female, mouse, plasma, sc, s.c. 25 mg/kg, average (SD), read-out: AUC s.c.) of 1.17 µg·h/mL. For the same compound, the “remaining after 24 h” value [11] was “approximately 80%”.
